Key:
MDA-MB-231 cell line = assay: MDA-MB-231 cancer cell proliferation inhibition (Cell Titer-Glo); type: cell-based; conditions: Homo sapiens, MDA-MB-231 triple-negative breast cancer cell line, 72 hours
Method in brief: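 GI50 comes from CellTiter-Glo luminescence, read 10 min after reagent addition at RT, following 72 h compound treatment. Eleven concentrations were used (⅓ steps, highest 10 μM final) on 2000 cells/well. MDA-MB-231 and MDA-MB-468 were grown in DMEM, SHP-77 in RPMI.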

LRRK2 (G2019S) = LRRK2 (G2019S) (Homo sapiens, UniProt Q5S007, G2019S); assay: LRRK2 G2019S enzyme inhibition, ADP-Glo kinase assay; type: biochemical; parameters: purchased SignalChem L10-12GG
LRRK2 (G2019S), sequence (Q5S007 970-2527 G2019S limits assumed): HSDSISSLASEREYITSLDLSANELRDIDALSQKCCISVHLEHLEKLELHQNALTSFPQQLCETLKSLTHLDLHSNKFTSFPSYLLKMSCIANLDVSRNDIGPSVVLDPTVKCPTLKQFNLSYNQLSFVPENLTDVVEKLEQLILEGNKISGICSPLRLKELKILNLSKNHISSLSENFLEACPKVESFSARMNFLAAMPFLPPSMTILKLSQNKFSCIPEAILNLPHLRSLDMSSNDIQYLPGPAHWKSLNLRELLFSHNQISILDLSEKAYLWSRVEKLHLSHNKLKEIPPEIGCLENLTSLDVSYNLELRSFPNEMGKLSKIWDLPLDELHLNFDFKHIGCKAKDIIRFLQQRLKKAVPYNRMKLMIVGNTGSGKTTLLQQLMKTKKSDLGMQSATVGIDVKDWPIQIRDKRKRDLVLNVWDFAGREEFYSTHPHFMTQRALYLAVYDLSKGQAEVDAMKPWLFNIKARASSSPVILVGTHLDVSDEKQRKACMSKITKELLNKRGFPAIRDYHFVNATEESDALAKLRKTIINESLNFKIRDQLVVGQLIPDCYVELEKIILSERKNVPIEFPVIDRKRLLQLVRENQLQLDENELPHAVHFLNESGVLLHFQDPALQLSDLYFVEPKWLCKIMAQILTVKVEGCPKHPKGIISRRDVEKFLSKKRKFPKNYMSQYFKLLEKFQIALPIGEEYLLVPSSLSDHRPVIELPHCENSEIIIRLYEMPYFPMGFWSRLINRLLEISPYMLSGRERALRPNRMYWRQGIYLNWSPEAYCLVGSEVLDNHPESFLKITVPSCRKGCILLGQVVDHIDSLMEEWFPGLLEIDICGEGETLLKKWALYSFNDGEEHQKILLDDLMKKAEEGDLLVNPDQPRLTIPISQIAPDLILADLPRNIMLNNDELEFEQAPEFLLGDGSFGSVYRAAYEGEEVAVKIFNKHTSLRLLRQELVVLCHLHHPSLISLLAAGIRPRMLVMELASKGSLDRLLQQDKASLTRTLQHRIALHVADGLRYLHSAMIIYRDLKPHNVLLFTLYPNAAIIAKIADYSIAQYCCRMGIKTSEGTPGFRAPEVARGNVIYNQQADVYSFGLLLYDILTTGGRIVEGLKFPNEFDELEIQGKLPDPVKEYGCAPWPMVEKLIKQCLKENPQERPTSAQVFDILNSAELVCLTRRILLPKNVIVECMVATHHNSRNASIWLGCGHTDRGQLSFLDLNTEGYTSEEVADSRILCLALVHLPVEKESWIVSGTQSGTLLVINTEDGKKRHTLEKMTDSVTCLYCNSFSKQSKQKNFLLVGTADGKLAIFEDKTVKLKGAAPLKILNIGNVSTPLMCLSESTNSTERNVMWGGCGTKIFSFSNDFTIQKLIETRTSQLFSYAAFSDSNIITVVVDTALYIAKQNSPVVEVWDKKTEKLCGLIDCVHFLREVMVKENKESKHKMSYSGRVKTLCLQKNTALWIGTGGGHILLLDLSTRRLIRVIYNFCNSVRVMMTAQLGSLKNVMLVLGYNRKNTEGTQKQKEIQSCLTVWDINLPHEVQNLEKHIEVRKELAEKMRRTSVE
Method in brief: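 Activity read as ADP-Glo luminescence, normalized to untreated solvent control, with IC50 (nM) fitted over 12 final compound levels (top 50 μM). Reaction: 2 h, 25° C, human LRRK2 G2019S 16 ng, ATP 25 μM, substrate 0.2 μg, in Tris-HCl pH 7.4 with MgCl2, BSA and DTT.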

TTK = molecular target: T1, TTK (Homo sapiens, UniProt P33981); assay: TTK enzyme inhibition, ADP-Glo kinase assay; type: biochemical; parameters: purchased Signalchem T20-10G; conditions: ATP 5 μM
T1 sequence (P33981 1-857): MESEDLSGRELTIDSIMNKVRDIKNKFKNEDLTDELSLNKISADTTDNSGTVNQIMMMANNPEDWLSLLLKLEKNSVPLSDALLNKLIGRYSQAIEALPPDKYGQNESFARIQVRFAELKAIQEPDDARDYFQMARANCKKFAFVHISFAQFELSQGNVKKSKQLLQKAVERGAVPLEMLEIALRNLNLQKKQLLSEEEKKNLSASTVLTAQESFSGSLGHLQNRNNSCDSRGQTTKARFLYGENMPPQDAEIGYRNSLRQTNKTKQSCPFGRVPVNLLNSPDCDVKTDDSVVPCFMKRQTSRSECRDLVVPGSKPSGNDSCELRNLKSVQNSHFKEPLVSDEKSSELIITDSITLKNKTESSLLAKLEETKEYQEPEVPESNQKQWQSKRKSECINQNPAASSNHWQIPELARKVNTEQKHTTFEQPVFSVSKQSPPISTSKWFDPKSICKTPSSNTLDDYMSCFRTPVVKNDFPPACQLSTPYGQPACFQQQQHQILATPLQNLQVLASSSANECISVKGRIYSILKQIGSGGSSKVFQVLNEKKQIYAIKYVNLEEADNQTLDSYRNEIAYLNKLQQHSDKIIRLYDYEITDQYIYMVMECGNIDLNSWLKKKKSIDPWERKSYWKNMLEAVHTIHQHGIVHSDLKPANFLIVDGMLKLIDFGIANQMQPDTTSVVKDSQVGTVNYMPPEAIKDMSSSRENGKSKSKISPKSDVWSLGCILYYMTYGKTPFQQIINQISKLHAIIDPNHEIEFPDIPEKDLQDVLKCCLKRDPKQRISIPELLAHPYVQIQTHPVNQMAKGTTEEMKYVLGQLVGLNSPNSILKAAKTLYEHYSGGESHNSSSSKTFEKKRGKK
Method in brief: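 Recombinant human TTK (7.5 ng) reacted with 5 μM ATP and MBP substrate (0.2 μg) for 4 h at 25° C in Tris-HCl pH 7.4, MgCl2, BSA, DTT buffer, compound at 0.000017–1 μM. ADP formation by ADP-Glo luminescence; IC50 (nM) relative to solvent control.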

| Compound | GI50 (MDA-MB-231 cell line) [µM] | IC50 (LRRK2 (G2019S)) [µM] | IC50 (TTK) [µM] |
| --- | --- | --- | --- |
| CCNc1cc(Nc2cc(F)c(S(=O)(=O)N3CCC(N4CCOCC4)CC3)cc2OC)nc2[nH]cc(C(F)(F)F)c12 [Example 266, N^4-ethyl-N^6-(5-fluoro-2-methoxy-4-((4-morpholinopiperidin-1-yl)sulfonyl)phenyl)-3-(trifluoromethyl)-1H-pyrrolo[2,3-b]pyridine-4,6-diamine] | 0.301 to 1 | 0.101 to 0.3 | 0.301 to 1 |
| CNc1cc(Nc2ccc(S(=O)(=O)N3CCC(N4CCOCC4)CC3)c3c2OCCO3)nc2[nH]cc(C(F)(F)F)c12 [Example 233, N^4-methyl-N^6-(8-((4-morpholinopiperidin-1-yl)sulfonyl)-2,3-dihydrobenzo [b] [1,4]dioxin-5-yl)-3-(trifluoromethyl)-1H-pyrrolo[2,3-b]pyridine-4,6-diamine] | 0.301 to 1 | < 0.1 | 0.101 to 0.3 |
| COCCNc1cc(Nc2ccc(S(=O)(=O)N3CCC(N4CCOCC4)CC3)c3c2OCCO3)nc2[nH]cc(C(F)(F)F)c12 [Example 97, N^4-(2-methoxyethyl)-N^6-(8-((4-morpholonopiperidin-1-yl)sulfonyl)-2,3-dihydrobenzo[b] [1,4]dioxin-5-yl)-3-(trifluoromethyl)-1H-pyrrolo[2,3-b]pyridine-4,6-diamine] | 0.301 to 1 | < 0.1 | 0.101 to 0.3 |

The remaining lines, values ahead:

| GI50 (MDA-MB-231 cell line) [µM] | IC50 (LRRK2 (G2019S)) [µM] | IC50 (TTK) [µM] | Compound |
| --- | --- | --- | --- |
| 0.301 to 1 | 0.301 to 1 | < 0.1 | O=C(c1ccc(Nc2cc(C3CC3)c3c(C(F)(F)F)c[nH]c3n2)c2c1OCCO2)N1CCOCC1 [Example 220, (8-((4-cyclopropyl-3-(trifluoromethyl)-1H-pyrrolo[2,3-b]pyridin-6-yl)amino)-2,3-dihydrobenzo[b] [1,4]dioxin-5-yl)(morpholino) methanone] |
| 0.301 to 1 | < 0.1 | < 0.1 | CCNc1cc(Nc2ccc(C(=O)N3CCC(N4C[C@@H]5C[C@H]4CO5)CC3)c3c2OCC3)nc2[nH]cc(C(F)(F)F)c12 [Example 105, (4-((1S,4S)-2-oxa-5-azabicyclo[2.2.1]heptan-5-yl)piperidin-1-yl)(7-((4-(ethylamino)-3-(trifluoromethyl)-1H-pyrrolo[2,3-b]pyridin-6-yl)amino)-2,3-dihydrobenzofuran-4-yl)methanone] |

Reference: patent US12240844B2 (Voronoi, Inc., priority 2019, dated 2025)
